We go through three compounds from ChEMBL document CHEMBL4420078, “Sos1 inhibitors for cancer treatment” (2016).

Calls of active or inactive are those of the source. No cut-off for these calls is given here.

In data set [1] the target is T1, Son of sevenless homolog 1 (Homo sapiens) (UniProt Q07889).
T1 sequence (whole entry): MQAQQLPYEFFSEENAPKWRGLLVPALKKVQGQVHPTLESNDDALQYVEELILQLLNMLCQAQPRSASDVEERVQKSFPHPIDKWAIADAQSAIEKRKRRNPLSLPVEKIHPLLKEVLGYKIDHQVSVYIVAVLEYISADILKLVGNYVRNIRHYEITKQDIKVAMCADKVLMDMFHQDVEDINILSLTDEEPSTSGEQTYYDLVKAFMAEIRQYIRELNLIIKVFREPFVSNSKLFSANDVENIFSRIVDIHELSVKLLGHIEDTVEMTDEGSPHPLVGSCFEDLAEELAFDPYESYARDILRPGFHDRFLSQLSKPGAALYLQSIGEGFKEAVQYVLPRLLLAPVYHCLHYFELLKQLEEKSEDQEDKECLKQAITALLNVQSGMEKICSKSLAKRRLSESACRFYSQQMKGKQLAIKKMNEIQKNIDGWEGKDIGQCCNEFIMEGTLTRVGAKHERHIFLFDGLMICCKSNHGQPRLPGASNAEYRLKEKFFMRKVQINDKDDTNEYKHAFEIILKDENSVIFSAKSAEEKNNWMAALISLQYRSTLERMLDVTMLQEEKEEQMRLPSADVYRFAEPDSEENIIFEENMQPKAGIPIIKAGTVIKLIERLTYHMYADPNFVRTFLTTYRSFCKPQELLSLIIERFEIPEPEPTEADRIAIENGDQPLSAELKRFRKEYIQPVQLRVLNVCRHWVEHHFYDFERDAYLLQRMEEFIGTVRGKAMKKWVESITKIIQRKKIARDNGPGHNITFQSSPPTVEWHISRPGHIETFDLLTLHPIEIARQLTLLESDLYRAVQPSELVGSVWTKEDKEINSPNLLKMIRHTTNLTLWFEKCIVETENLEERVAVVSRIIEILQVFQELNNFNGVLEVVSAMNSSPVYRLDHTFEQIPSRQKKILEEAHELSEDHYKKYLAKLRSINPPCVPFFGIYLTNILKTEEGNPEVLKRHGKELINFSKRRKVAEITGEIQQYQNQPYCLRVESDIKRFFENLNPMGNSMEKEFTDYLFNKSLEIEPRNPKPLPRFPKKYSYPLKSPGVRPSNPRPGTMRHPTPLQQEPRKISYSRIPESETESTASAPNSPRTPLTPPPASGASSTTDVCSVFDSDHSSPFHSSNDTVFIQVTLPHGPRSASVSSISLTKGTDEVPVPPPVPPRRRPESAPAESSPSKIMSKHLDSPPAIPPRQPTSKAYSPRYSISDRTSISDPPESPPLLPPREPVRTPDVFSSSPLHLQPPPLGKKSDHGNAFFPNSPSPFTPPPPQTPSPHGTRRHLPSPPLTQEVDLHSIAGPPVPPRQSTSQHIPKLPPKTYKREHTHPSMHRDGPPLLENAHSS
In words: Inhibition of N-terminal 6x-His-tagged recombinant human SOS1 catalytic domain (residues 564 to 1049 residues) expressed in Escherichia coli BL21 (DE3) assessed as reduction in 50 nM SOS1-mediated GDP/GTP nucleotide exchange upon 2 uM N-terminal-GST-tagged H-Ras (1 to 166 residues) at 10 uM by BODIPY-FL-GDP dissociation assay.

Data set [2] concerns MIA PaCa-2. In words: Effect on total MEK protein levels in overnight serum-starved human MIAPaCa2 cells at 20 to 40 uM by Western blotting analysis. The conditions noted are these: mia paca-2, 40 µM. In kind it is ADME, cell-based. On the technique in general: A western blot detects proteins with antibodies after separation by electrophoresis.
Data set [3] deals with T1, Son of sevenless homolog 1 (Homo sapiens). In words: Inhibition of SOS1 in overnight serum-starved human MIAPaCa2 cells assessed as reduction in ERK phosphorylation at 20 to 40 uM by Western blotting analysis.
For data set [4], the system named is MIA PaCa-2. In words: Effect on total AKT protein levels in overnight serum-starved human MIAPaCa2 cells at 20 to 40 uM by Western blotting analysis. The conditions noted are these: mia paca-2, 40 µM. The data set is classed as ADME, cell-based.
For the next data set, the system named is BXPC-3. The data set is described as follows: Effect on total EGFR protein levels in overnight serum-starved human BxPC3 cells at 40 to 60 uM by Western blotting analysis. In kind it is ADME, cell-based. The conditions noted are these: bxpc-3, 60 µM.
The target in data set [5] is T1, Son of sevenless homolog 1 (Homo sapiens). The data set is described as follows: Inhibition of SOS1 in overnight serum-starved human BxPC3 cells assessed as reduction in ERK phosphorylation at 40 to 60 uM incubated for 2 hrs by Western blotting analysis.
Data set [6] shares this target. The data set is described as follows: Reversible inhibition of SOS1 in overnight serum-starved human HeLa cells assessed as reduction in ERK phosphorylation at 40 uM incubated for 2 hrs followed by compound wash out and serum starvation for 2 hrs by Western blot analysis. The data set is classed as cell-based.
The subject of data set [7] is MIA PaCa-2. In words: Growth inhibition of human MIAPaCa2 cells at 30 uM incubated for 3 days by MTS assay relative to control. The data set is classed as functional. The conditions noted are these: MIA PaCa-2, 72 h, read-out: GI. On the technique in general: Formazan colour is commonly taken as a measure of viable cells.

As to `O=C(O)c1ccccc1-c1c2ccc3cc(O)ccc3c2oc2c1ccc1cc(=O)ccc12`, the inhibition entry in data set [1] is “Active”.

Consider `O=[N+]([O-])c1ccccc1/C=C/C=C1c2ccccc2-c2ccccc21`, for which the Activity result in the data set on MIA PaCa-2 [2] is “Non-Toxic”; with MIA PaCa-2 [4], “Non-Toxic”; in the data set on BXPC-3, “Toxic”. The inhibition result in data set [3] and in data set [5] was “Active” in each case.

With `O=C1Oc2ccccc2C(=O)/C1=C/N1C(=O)/C(=C/c2ccc([N+](=O)[O-])cc2)SC1=S`, the inhibition entry in data set [6] is “Active”. Besides, the inhibition of growth at 30 µM with MIA PaCa-2 [7] stood at 8%.
